A value given as a limit tells only on which side of the number the result lay.

Series [1] concerns cryopreserved hepatocytes from mice (CD-1 males). The experiment in a line: Intrinsic clearance in cryopreserved mouse hepatocytes. Type of series: in vitro ADME. The conditions noted are these: 37° C. The procedure: (§1) Cryopreserved hepatocytes from humans, rats (Sprague-Dawley males) and from mice (CD-1 males) were used for incubation at different times (0, 0.5, 1, 1.5, 2 hours) at 37° C. followed by HPLC-MS/MS detection. The aim was to verify the clearance time of the test substance on hepatocytes. The experiment was performed on a 96-well plate and the cryopreserved hepatocytes were thawed and resuspended in Krebs-Heinslet buffer (pH 7.3). The reaction was started by adding each test compound to each cell suspension and performing the incubation at the times indicated above. The reaction was quenched with addition of acetonitrile in the wells and detection by HPLC-MS/MS (mass spectrometry). MS/MS is performed by combining two mass detectors into a single instrument.

Series [2] concerns cryopreserved hepatocytes from rats (Sprague-Dawley males). The experiment in a line: Intrinsic clearance in cryopreserved rat hepatocytes. Type of series: in vitro ADME. The conditions noted are these: 37° C. On the procedure:
as §1

For series [3], the target named is MT2 receptor (Homo sapiens (Human), UniProt P49286). The experiment in a line: MT2 functional assay. Type of series: cell-based.
MT2 receptor, sequence (P49286 whole entry): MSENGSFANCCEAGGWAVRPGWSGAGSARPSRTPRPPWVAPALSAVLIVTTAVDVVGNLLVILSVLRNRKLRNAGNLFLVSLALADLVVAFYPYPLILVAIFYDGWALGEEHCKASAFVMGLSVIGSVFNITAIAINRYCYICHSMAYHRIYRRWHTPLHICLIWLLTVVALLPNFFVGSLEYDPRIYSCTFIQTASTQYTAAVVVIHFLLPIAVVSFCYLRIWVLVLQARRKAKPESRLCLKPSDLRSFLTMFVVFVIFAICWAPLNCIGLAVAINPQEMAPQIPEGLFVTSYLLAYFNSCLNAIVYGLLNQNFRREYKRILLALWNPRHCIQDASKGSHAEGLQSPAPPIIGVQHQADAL
In series [4] the target is MT1 receptor (Homo sapiens (Human), UniProt P48039). In words: MT1 functional assay.
MT1 receptor, sequence (P48039 whole entry): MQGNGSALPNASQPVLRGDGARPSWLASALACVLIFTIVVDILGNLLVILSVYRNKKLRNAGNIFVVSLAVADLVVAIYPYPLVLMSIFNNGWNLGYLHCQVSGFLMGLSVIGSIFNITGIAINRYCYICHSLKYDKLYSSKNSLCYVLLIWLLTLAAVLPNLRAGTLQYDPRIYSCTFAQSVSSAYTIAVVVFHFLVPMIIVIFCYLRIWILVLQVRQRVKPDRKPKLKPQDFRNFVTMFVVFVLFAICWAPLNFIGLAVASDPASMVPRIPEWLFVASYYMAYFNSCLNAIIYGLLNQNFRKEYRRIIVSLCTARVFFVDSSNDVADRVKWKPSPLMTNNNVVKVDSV
The target of series [5] is T1, CYP1A2 (Homo sapiens (Human), UniProt P05177). The conditions noted are these: cited from earlier work.
T1 sequence (P05177 whole entry): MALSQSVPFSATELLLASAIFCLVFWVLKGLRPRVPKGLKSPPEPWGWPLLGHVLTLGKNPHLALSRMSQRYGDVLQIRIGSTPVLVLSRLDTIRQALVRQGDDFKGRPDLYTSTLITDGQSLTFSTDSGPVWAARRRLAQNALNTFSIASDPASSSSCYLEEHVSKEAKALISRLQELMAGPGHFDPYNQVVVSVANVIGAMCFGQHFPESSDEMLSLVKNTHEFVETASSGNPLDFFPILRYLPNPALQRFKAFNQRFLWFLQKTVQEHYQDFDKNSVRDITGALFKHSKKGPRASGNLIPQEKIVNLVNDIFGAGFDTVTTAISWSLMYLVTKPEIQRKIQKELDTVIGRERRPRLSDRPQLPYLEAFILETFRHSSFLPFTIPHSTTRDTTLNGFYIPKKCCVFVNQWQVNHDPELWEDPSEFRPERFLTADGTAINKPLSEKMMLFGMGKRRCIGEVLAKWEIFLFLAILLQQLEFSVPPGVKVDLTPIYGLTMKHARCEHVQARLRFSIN
Series [6] deals with cryopreserved human hepatocytes. In words: Intrinsic clearance in cryopreserved human hepatocytes. Type of series: in vitro ADME. The conditions noted are these: 37° C. On the procedure:
as §1

Series [7] concerns CYP2C9 and CYP2C19. The conditions noted are these: cited from earlier work.
For series [8], the target named is T1, CYP1A2. The experiment in a line: CYP inhibition, fluorogenic substrate. Type of series: in vitro ADME. The source says:
The CYP inhibition test used fluorogenic substrates specific to each CYP to check for inhibition thereof by detection of the expected metabolite using a fluorimetric method. Recombinant CYPs (CYP2B6, CYP2C8, CYP2C9, CYP2C9, CYP2C19, CYP2D6, CYP3A4) from specific humans for each cytochrome family, subfamily and polypeptide were used. The following were used as substrates: CEC (3-Cyano-7-Ethoxycoumarin) which forms as metabolite CHC (3-Cyano-7-Hydroxycoumarin); EFC (7-Ethoxy-4-trifluoromethyl coumarin), forming the metabolite HFC (7-Hydroxytrifluoromethylcoumarin); DBF (Dibenzylfluorescein) and its respective fluorescein metabolite; MFC (7-Methoxy-4-trifluoromethylcoumarin) which forms the metabolite HFC (7-Hydroxytrifluoromethylcoumarin); BFC (7-Benzyloxy-Trifluoromethylcoumarin) and its metabolite HFC; and BzRes (benzyloxyresorufin) to form resofurine. The detection of the metabolite was done with a fluorimetric method: analytical technique to identify and characterize the amount of substance by excitation using a beam of ultraviolet light and measurement of the emitted fluorescence. For detection, a 96-well plate was used. […] Incubations were performed between 20-50 minutes at 37° C. according to the specific parameter of each fluorogenic substrate, for the evaluated component. Fluorescence at each well was detected before and after the incubation period.

A short description of series [9]: Pharmacokinetics in CD-1 mouse, I.V. and oral. Type of series: in vivo. The conditions noted are these: intravenous. On the procedure:
PK tests were performed with CD-1 mice, using 4 animals per molecule tested, 2 animals for pharmacokinetic analysis by intravenous (IV) administration and 2 animals for oral administration. The treatment was carried out in a single dose: I.V. group with dose of 1 mg/kg and Oral group with dose of 10 mg/kg. […] Blood collection was performed after euthanasia at 08 defined time points and at 24 hours post-dose. The pharmacokinetic analysis parameters detected for Group IV were: half-life (t½), drug concentration at time zero (C0), last measurable plasma concentration (AUClast), area under the plasma concentration curve extrapolation percentage (AUC % ext), area under the plasma concentration curve extrapolation to infinity (AUCinf), volume of distribution (Vz), steady state volume of distribution (Vss), clearance (CL) and mean residence time (MRT). The parameters evaluated for the Oral group were: bioavailability (F %), maximum concentration reached (Cmax), time to reach maximum plasma concentration (Tmax), last measurable plasma concentration (AUClast), area under the plasma concentration curve extrapolation percentage (AUC % ext), area under the plasma concentration curve extrapolation to infinity (AUCinf), area under the plasma concentration curve extrapolation to infinity versus dose (AUCinf/Dose), half-Life (t½), and mean residence time (MRT).

The test system of series [10] is melatonin receptors. The conditions noted are these: literature (Depreux et al. 1994); cited from earlier work.

For `COc1ccc2cccc(CCNC(C)=O)c2c1` [IA2-76 (agomelatine), agomelatine], in series [1], the “Intrinsic clearance half-life, Mouse CD-1 hepatocytes” value was 0.417 h. Further, in series [2], the “Intrinsic clearance half-life, Rat Sprague-Dawley hepatocytes” value is 0.833 h. The “intrinsic activity at MT2” value in [3] is listed as “agonist”. Further, the “intrinsic activity at MT1” value in series [4] was “agonist”. For the same molecule, the “fraction metabolized in the liver by CYP1A2” value in series [5] is listed as “Around 90%”. Moreover, in [6], the “Intrinsic clearance half-life, Human hepatocytes” value came to 0.8 h. Besides, the “fraction metabolized by CYP2C9 and CYP2C19” value in [7] is recorded as 10%. In addition, the “affinity to CYP isoforms, specially CYP1A2” value in series [8] is recorded as “high affinity”.

For `CCOc1nc2ccc(OC)cc2n1CCCNC(C)=O` [IA2-120], in series [1], the “Intrinsic clearance half-life, Mouse CD-1 hepatocytes” value was more than 2 h. Moreover, the “Intrinsic clearance half-life, Rat Sprague-Dawley hepatocytes” value in series [2] stood at 0.883 h. Besides, in [9], the “C0 compared to agomelatine” value is listed as “higher” and the “Clearance compared to agomelatine” value is reported as “lower”. The “Intrinsic clearance half-life, Human hepatocytes” value in series [6] is more than 2 h.

For the molecule `CCOc1nc2cc(Cl)c(OC)cc2n1CCNC(C)=O` [IA2-121], the “Intrinsic clearance half-life, Mouse CD-1 hepatocytes” value in series [1] was more than 2 h. In [2], the “Intrinsic clearance half-life, Rat Sprague-Dawley hepatocytes” value worked out at 0.867 h. Also, in series [9], the “C0 compared to agomelatine” value is given as “higher” and the “Clearance compared to agomelatine” value was “lower”. For the same molecule, in series [6], the “Intrinsic clearance half-life, Human hepatocytes” value was more than 2 h.

Regarding `CCOc1nc2cc(Cl)c(OC)cc2n1CCCNC(C)=O` [IA2-142], the “Intrinsic clearance half-life, Mouse CD-1 hepatocytes” value in series [1] was more than 2 h. Further, the “Intrinsic clearance half-life, Rat Sprague-Dawley hepatocytes” value in series [2] was more than 2 h. Moreover, in series [9], the “C0 compared to agomelatine” value is reported as “higher” and the “Clearance compared to agomelatine” value is listed as “lower”. Besides, the “Intrinsic clearance half-life, Human hepatocytes” value in series [6] is more than 2 h.

In the case of `COc1cc2c(cc1Cl)nc(OC)n2CCNC(C)=O` [IA2-143], in series [2], the “Intrinsic clearance half-life, Rat Sprague-Dawley hepatocytes” value amounted to 1.8 h. Further, in series [9], the “C0 compared to agomelatine” value is listed as “higher” and the “Clearance compared to agomelatine” value is “lower”.

In the case of `COc1ccc2ncn(CCNC(C)=O)c2c1` [N-[2-(6-methoxybenzimidazol-1-yl)-ethyl]acetamide], the “affinity lower than melatonin affinity” value in series [10] is “approximately 3,200 times”.
